In DBAASP:
Converted amounts (≈) assume the structure as drawn. Blank lines part the entries; values can stand above or below the compound they belong to.

Assays:
Assay in all cases: ≥ marks a high value that may be exact or a test limit, other limits are often not marked, values filed in µg/mL are converted to µM
[1] = test system: Pseudomonas aeruginosa ATCC 9027
[2] = test system: Staphylococcus aureus ATCC 6538
[3] = test system: Staphylococcus aureus NCTC 8325
[4] = test system: Escherichia coli ATCC 25922
[5] = test system: Bacillus subtilis ATCC 6051
[6] = test system: Staphylococcus aureus USA 300
[7] = test system: Klebsiella pneumoniae ATCC 13883
[8] = test system: Pseudomonas aeruginosa PAO1
[9] = test system: Staphylococcus aureus NCTC 10788
[10] = test system: Salmonella typhimurium
[11] = test system: Escherichia coli
[12] = test system: Bacillus subtilis
[13] = test system: Staphylococcus aureus
[14] = test system: Escherichia coli DH5alpha
[15] = test system: Bacillus cereus

Compound: CC(C)C[C@H](NC(=O)[C@H](CC(C)C)NC(=O)[C@H](CCCCN)NC(=O)[C@H](CCCCN)NC(=O)[C@H](C)NC(=O)[C@H](CC(C)C)NC(=O)[C@H](CCCCN)NC(=O)[C@H](C)NC(=O)[C@H](CC(C)C)NC(=O)[C@H](C)NC(=O)[C@H](CCCCN)NC(=O)[C@H](C)NC(=O)[C@@H](N)Cc1ccccc1)C(N)=O [FAKALAKLAKKLL]
MIC [1]: 3.53 µM (≈ 5 µg/mL)
MIC [2]: 3.53 µM (≈ 5 µg/mL)

Compound: CC[C@H](C)[C@@H]1NC(=O)[C@H](C)NC(=O)[C@@H](NC(=O)[C@H](Cc2ccccc2)NC(=O)[C@@H](NC(=O)[C@H](CCCCN)NC(=O)[C@@H]2CCCN2C(=O)[C@H](CC(C)C)NC(=O)[C@H](Cc2ccccc2)NC(=O)[C@H](CC(N)=O)NC(=O)[C@H](C)NC(=O)[C@H](C)NC(=O)[C@H](CCSC)NC(=O)CNC(=O)[C@H](C)NC(=O)[C@@H](NC(=O)[C@H](Cc2ccccc2)NC(=O)[C@@H]2CCCN2C(=O)[C@H](CC(C)C)NC(=O)[C@@H](N)Cc2ccccc2)[C@@H](C)CC)[C@@H](C)CC)CSSC[C@@H](C(=O)O)NC(=O)[C@H](CCCCN)NC(=O)[C@H](CCCCN)NC(=O)[C@H](CO)NC1=O [FLPFIAGMAANFLPKIFCAISKKC]
MIC [3]: 8 µM (≈ 21 µg/mL)
MIC [4]: 19 µM (≈ 50 µg/mL)

Compound: CC(C)C[C@H](NC(=O)[C@H](CC(C)C)NC(=O)[C@H](CCCCN)NC(=O)[C@H](CCCCN)NC(=O)[C@H](C)NC(=O)[C@H](C)NC(=O)[C@H](CC(C)C)NC(=O)[C@H](CCCCN)NC(=O)[C@H](CC(C)C)NC(=O)[C@H](CC(C)C)NC(=O)[C@H](CCCCN)NC(=O)[C@H](C)NC(=O)[C@@H](N)Cc1ccccc1)C(N)=O [FAKLLKLAAKKLL]
MIC [1]: 3.43 µM (≈ 5 µg/mL)
MIC [2]: 137 µM (≈ 200 µg/mL)

Compound: CC[C@H](C)[C@H](NC(=O)[C@@H](NC(=O)[C@@H]1CCCN1C(=O)[C@H](CC(C)C)NC(=O)[C@@H](N)Cc1ccccc1)[C@@H](C)CC)C(=O)N[C@@H](C)C(=O)N[C@@H](CCCCN)C(=O)N[C@H](C(=O)N[C@@H](CC(C)C)C(=O)N[C@@H](CO)C(=O)NCC(=O)N[C@@H](CC(C)C)C(=O)N[C@@H](CC(C)C)C(N)=O)C(C)C [FLPIIAKVLSGLL]
MIC [3]: 15 µM (≈ 20.7 µg/mL)

Compound: CC[C@@H](C)[C@H](N=C(O)[C@H](CO)N=C(O)C(CC(C)C)N=C(O)[C@H](CCSC)N=C(O)[C@@H]1CCCN1C(=O)[C@H](CC(C)C)N=C(O)CN=C(O)[C@H](N)Cc1ccccc1)C(O)=N[C@H](CC(C)C)C(=O)N1CCCC1C(O)=N[C@H](CCCCN)C(O)=N[C@H](C)C(O)=N[C@H](CC(C)C)C(O)=N[C@H](CS)C(O)=N[C@H](C(O)=N[C@H](CC(C)C)C(O)=N[C@H](CC(C)C)C(O)=N[C@H](CCCCN)C(O)=N[C@H](CCCNC(=N)N)C(O)=N[C@H](CCCCN)C(O)=N[C@H](CS)C(=O)O)[C@H](C)CC (stereo partly drawn) [FGLPMLSILPKALCILLKRKC]
MIC [3]: 20 µM (≈ 47.2 µg/mL)
MIC [4]: 12 µM (≈ 28.3 µg/mL)

Compound: CC[C@H](C)[C@H](NC(=O)[C@H](CC(C)C)NC(=O)[C@@H]1CCCN1C(=O)[C@H](CC(C)C)NC(=O)[C@@H](NC(=O)[C@@H](N)Cc1ccccc1)[C@@H](C)CC)C(=O)N[C@@H](C)C(=O)N[C@@H](CO)C(=O)N[C@@H](Cc1ccccc1)C(=O)N[C@@H](CC(C)C)C(=O)N[C@@H](CO)C(=O)N[C@@H](CCCCN)C(=O)N[C@@H](Cc1ccccc1)C(=O)N[C@@H](CC(C)C)C(N)=O [FILPLIASFLSKFL]
MIC [3]: 12 µM (≈ 19.3 µg/mL)

Compound: CC[C@H](C)[C@H](NC(=O)CN)C(=O)N[C@@H](Cc1ccccc1)C(=O)N[C@H](C(=O)N[C@@H](CCCCN)C(=O)N[C@H](C(=O)N[C@@H](CC(N)=O)C(=O)N[C@@H](CCCCN)C(=O)N[C@@H](CCCCN)C(=O)N[C@@H](CCCCN)C(=O)N[C@@H](C)C(=O)N[C@@H](CCCCN)C(=O)N[C@H](C(=O)NCC(=O)N[C@H](C(=O)N[C@@H](Cc1ccccc1)C(=O)N[C@@H](CC(N)=O)C(=O)N[C@H](C(=O)N[C@H](C(=O)N[C@@H](CCCCN)C(=O)N[C@H](C(=O)N[C@H](C(=O)NCC(=O)N[C@@H](CCCCN)C(=O)N[C@@H](CCC(=O)O)C(=O)N[C@@H](C)C(=O)NCC(=O)N[C@@H](CCSC)C(=O)N[C@@H](CC(=O)O)C(=O)N[C@H](C(=O)N[C@H](C(=O)N[C@@H](CCCN=C(N)N)C(=O)N[C@@H](C)C(=O)NCC(=O)N[C@H](C(=O)N[C@@H](CC(=O)O)C(=O)N[C@H](C(=O)N[C@H](C(=O)N[C@@H](CO)C(=O)N[C@H]1CSSC[C@@H](C(=O)O)NC(=O)[C@H](CCC(=O)O)NC(=O)CNC(=O)[C@H](CCCCN)NC(=O)[C@H]([C@@H](C)CC)NC(=O)[C@H](CCCCN)NC1=O)[C@@H](C)CC)[C@@H](C)O)[C@@H](C)CC)[C@@H](C)CC)C(C)C)[C@@H](C)CC)[C@@H](C)O)[C@@H](C)CC)[C@@H](C)CC)C(C)C)[C@@H](C)O)[C@@H](C)CC)[C@@H](C)O [GIFTKINKKKAKTGVFNIIKTIGKEAGMDVIRAGIDTISCKIKGEC]
MIC [3]: 15 µM (≈ 74.1 µg/mL)
MIC [4]: 1 µM (≈ 4.94 µg/mL)

Compound: CC(C)C[C@H](NC(=O)[C@@H](N)Cc1ccccc1)C(=O)NCC(=O)N[C@@H](CO)C(=O)N[C@H](C(=O)N[C@@H](Cc1ccccc1)C(=O)N[C@@H](CCCCN)C(=O)N[C@@H](CO)C(=O)N[C@@H](C)C(=O)N[C@@H](CO)C(=O)N[C@@H](CCCCN)C(=O)N[C@H](C(=O)N[C@@H](Cc1ccccc1)C(=O)N1CCC[C@H]1C(=O)N[C@@H](C)C(=O)N[C@H](C(=O)N[C@@H](Cc1ccccc1)C(=O)NCC(=O)N[C@@H](CCCCN)C(=O)N[C@H](C(=O)O)C(C)C)C(C)C)C(C)C)C(C)C [FLGSVFKSASKVFPAVFGKV]
MIC [15]: ≥ 121 µM
MIC [11]: > 121 µM
MIC [13]: > 121 µM

More lines, now with the values ahead:

MIC [5]: ≥ 1000 µM
Compound: CC[C@H](C)[C@H](NC(=O)[C@H](CC(N)=O)NC(=O)[C@H](CC(N)=O)NC(=O)CNC(=O)[C@H](CCC(=O)O)NC(=O)[C@H](CC(N)=O)NC(=O)[C@H](CCC(=O)O)NC(=O)[C@H](CCC(N)=O)NC(=O)[C@H](CCC(=O)O)NC(=O)[C@H](CCC(=O)O)NC(=O)[C@@H](N)CCCCN)C(=O)N[C@@H](Cc1ccccc1)C(=O)N[C@H](C(=O)N[C@@H](CC(N)=O)C(=O)N[C@@H](CCCN=C(N)N)C(=O)N[C@@H](Cc1cnc[nH]1)C(=O)N[C@H](C(=O)N[C@H](C(=O)N[C@@H](CC(=O)O)C(=O)N[C@@H](CCCCN)C(=O)N[C@@H](CC(C)C)C(=O)O)C(C)C)[C@@H](C)CC)C(C)C [KEEQENEGNNIFVNRHIVDKL]

MIC [6]: 1.56 µM (≈ 2.02 µg/mL)
MIC [7]: 3.1 µM (≈ 4.02 µg/mL)
MIC [8]: > 25 µM
MIC [4]: 3.1 µM (≈ 4.02 µg/mL)
Compound: CC(C)C[C@H](NC(=O)[C@H](CC(C)C)NC(=O)[C@H](CCCCN)NC(=O)CNC(=O)[C@H](CC(C)C)NC(=O)[C@H](C)NC(=O)[C@H](CCCCN)NC(=O)[C@H](CC(C)C)NC(=O)[C@H](C)NC(=O)[C@H](CO)NC(=O)[C@H](CC(C)C)NC(=O)[C@H](CC(C)C)NC(=O)CN)C(N)=O [GLLSALKALGKLL]

MIC [9]: ≥ 157 µM
Compound: CC(C)C[C@H](NC(=O)[C@H](CC(C)C)NC(=O)CNC(=O)CNC(=O)[C@H](CC(C)C)NC(=O)[C@@H](NC(=O)[C@H](CC(N)=O)NC(=O)[C@H](CO)NC(=O)[C@@H](NC(=O)[C@H](CC(C)C)NC(=O)CNC(=O)[C@H](CC(C)C)NC(=O)[C@@H](NC(=O)[C@@H]1CCCN1C(=O)CNC(=O)[C@H](CC(C)C)NC(=O)[C@@H](N)CC(C)C)C(C)C)C(C)C)C(C)C)C(N)=O [LLGPVLGLVSNVLGGLL]

MIC [10]: 4 µM (≈ 7.1 µg/mL)
MIC [11]: 8 µM (≈ 14.2 µg/mL)
MIC [12]: 8 µM (≈ 14.2 µg/mL)
MIC [13]: 8 µM (≈ 14.2 µg/mL)
Compound: CC[C@H](C)[C@H](NC(=O)[C@H](CCCN=C(N)N)NC(=O)[C@@H](NC(=O)[C@@H](NC(=O)[C@@H](NC(=O)CN)C(C)C)C(C)C)C(C)C)C(=O)NCC(=O)N[C@@H](CCCN=C(N)N)C(=O)N[C@H](C(=O)N[C@H](C(=O)N[C@H](C(=O)N[C@@H](CCCN=C(N)N)C(=O)NCC(=O)N[C@H](C(=O)N[C@@H](CCCN=C(N)N)C(=O)N[C@@H](CCCN=C(N)N)C(N)=O)C(C)C)C(C)C)C(C)C)C(C)C [GVVVRIGRVVVRGVRR]

MIC [12]: 2.4 µM (≈ 6.73 µg/mL)
MIC [13]: 4.3 µM (≈ 12.1 µg/mL)
MIC [14]: 4.5 µM (≈ 12.6 µg/mL)
Compound: CC[C@H](C)[C@H](NC(=O)CN)C(=O)NCC(=O)N[C@@H](C)C(=O)N[C@H](C(=O)N[C@@H](CC(C)C)C(=O)N[C@@H](CCCCN)C(=O)N[C@H](C(=O)N[C@@H](CC(C)C)C(=O)N[C@H](C(=O)N[C@H](C(=O)NCC(=O)N[C@@H](C)C(=O)N1CCC[C@H]1C(=O)N[C@@H](C)C(=O)N[C@@H](CC(C)C)C(=O)N[C@H](C(=O)N[C@@H](CO)C(=O)N[C@@H](Cc1c[nH]c2ccccc12)C(=O)N[C@H](C(=O)N[C@@H](CCCCN)C(=O)N[C@@H](CCCN=C(N)N)C(=O)N[C@@H](CCCCN)C(=O)N[C@@H](CCCN=C(N)N)C(=O)N[C@@H](CCC(N)=O)C(=O)N[C@@H](CCC(N)=O)C(N)=O)[C@@H](C)CC)[C@@H](C)CC)[C@@H](C)O)[C@@H](C)O)C(C)C)C(C)C [GIGAVLKVLTTGAPALISWIKRKRQQ]
